Data taken from patent publication US11147785B2, “Modified free amino acid formulation and uses” (priority 2020, dated 2021).

Assays:
[1] = Topical application without propylene glycol; type: in vivo
[2] = system: hepatic and intestinal glucuronidation; settings: concomitant administration; more in humans than rats; cited from earlier work

SMILES | Efficacy in topical applications [1] | Increase of bioavailability (serum concentration and extent of intestinal absorption) [2]
N[C@@H](CCC(=O)O)C(=O)[O-].O.[Na+] [MSGLM, Monosodium L-Glutamate Monohydrate] | ineffective | 
O=C(/C=C/C=C/c1ccc2c(c1)OCO2)N1CCCCC1 [Piperine] |  | up to 20 fold
